The results in this text go back to patent publication US20120142676A1, “Oxathiazine and dithiine oxides as inhibitors of sulfhydryl-dependent biomolecules” (priority 2010, published 2012).

Like-named read-outs stand apart in the source and are kept apart here.

In one data set the target is T1, human topoisomerase IIα (Homo sapiens, UniProt P11388).
T1 construct: 300 ng K562 cells nuclear extract, the amount that gave 80% decatenation; endogenous in cells; host or cells: K562 cells nuclear extract
T1 sequence (P11388 whole entry): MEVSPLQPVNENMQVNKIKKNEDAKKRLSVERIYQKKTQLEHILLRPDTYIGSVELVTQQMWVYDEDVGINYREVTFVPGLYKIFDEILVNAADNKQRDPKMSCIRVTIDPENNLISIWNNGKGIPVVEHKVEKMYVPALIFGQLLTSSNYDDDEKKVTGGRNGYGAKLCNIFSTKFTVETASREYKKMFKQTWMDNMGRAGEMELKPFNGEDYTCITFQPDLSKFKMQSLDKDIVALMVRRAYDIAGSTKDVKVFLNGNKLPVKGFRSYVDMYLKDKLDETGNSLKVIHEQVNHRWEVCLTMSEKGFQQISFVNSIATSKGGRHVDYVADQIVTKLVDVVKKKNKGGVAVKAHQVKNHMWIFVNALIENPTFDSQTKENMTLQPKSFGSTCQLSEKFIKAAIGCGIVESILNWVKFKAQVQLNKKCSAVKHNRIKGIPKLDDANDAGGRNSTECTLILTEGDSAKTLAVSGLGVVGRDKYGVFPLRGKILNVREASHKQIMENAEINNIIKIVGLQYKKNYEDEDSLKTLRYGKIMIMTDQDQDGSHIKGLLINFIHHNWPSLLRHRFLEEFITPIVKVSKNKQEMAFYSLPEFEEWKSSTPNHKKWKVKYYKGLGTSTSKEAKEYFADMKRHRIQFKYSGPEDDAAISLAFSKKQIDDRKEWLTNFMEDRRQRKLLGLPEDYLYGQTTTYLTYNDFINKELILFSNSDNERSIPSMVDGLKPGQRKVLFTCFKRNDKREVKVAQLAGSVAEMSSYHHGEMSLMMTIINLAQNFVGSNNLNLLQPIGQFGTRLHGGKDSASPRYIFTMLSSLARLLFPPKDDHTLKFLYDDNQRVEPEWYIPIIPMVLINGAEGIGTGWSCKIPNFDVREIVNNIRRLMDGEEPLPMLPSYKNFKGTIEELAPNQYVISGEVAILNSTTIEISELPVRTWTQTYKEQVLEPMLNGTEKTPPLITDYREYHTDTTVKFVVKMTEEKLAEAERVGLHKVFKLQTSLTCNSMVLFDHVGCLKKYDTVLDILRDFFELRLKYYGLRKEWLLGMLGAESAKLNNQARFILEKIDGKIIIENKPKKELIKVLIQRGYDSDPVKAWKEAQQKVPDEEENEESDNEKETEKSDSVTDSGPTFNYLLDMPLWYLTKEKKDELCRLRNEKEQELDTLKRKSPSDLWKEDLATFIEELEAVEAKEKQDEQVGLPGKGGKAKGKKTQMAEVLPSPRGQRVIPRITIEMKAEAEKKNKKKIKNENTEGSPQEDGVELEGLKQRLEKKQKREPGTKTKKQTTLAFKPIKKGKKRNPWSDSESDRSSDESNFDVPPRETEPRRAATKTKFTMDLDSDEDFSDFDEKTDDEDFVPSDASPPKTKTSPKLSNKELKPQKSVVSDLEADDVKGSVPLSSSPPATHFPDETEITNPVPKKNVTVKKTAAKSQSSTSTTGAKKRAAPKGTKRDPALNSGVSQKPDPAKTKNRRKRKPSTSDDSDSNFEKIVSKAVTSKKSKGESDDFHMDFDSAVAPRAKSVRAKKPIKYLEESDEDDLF
The data set can be described thus: Topoisomerase IIα decatenation inhibition assay. The class given is biochemical. The following applies: K562 cells nuclear extract, kDNA decatenation; for inhibition at 3 µM / inhibition at 30 µM: read-out: % Inhibition of topoisomerase II catalytic activity. On the procedure:
The catalytic inhibition of human topoisomerase IIα by a drug was measured by the ATP-dependent decatenation of kDNA (Topogen, Columbus, Ohio) into minicircles of DNA as we previously described (Hasinoff 1995 QSAR ICRF-187). The 20 μl reaction mixture contained 0.5 mM ATP, 50 mM Tris-HCl (pH 8.0), 120 mM KCl, 10 mM MgCl2, 30 μg/ml bovine serum albumin, 40 ng kDNA, drug or DMSO (0.5 μl) and 300 ng K562 cells nuclear extract, the amount that gave 80% decatenation. The enzymatic reaction was carried out at 37° C. and was terminated by the addition of 6 μl of buffer containing 5 mM Tris pH 8.0, 30% w/v sucrose, 0.5% bromophenol blue, and 125 mM EDTA. The resulting mixture was separated by electrophoresis (2 h at 8 V/cm) on an agarose gel prepared from 1.2% w/v agarose and 0.5 μg/ml ethidium bromide in TAE buffer pH 8.0 (40 mM Tris base, 0.114% (v/v) glacial acetic acid, 2 mM EDTA). The DNA in the gel was imaged by its fluorescence on an Alpha Annotech Fluorchem 8900 imaging system equipped with a 365 nm illuminator and a CCD camera. Densitometry scanning of gel photographs was used to obtain the fluorescence intensity of the band corresponding to the DNA minicircles. The percentage inhibition of K562 topoisomerase II catalytic activity at concentrations of 3 and 30 μM was determined using the following equation: % Inhibition=[(1−(Bdrug−Bbackground)/Bdmso]×100, where Bdrug is the band intensity value for the enzymatic reaction sample treated with drug, Bbackground is the band intensity value for sample without the enzyme, and Bdmso is the band intensity value for the enzymatic reaction sample treated with DMSO solvent only.

In data set [1] the test system is human leukemia K562 cells. The data set can be described thus: K562 cell growth inhibition assay (MTS). The data set is classed as cell-based. The following applies: 72 h incubation, read-out: Median growth inhibitory concentration (IC50) of K562 cells. On the procedure:
K562 cells were obtained from American Type Culture Collection (Rockville, Md.). These cells were maintained as suspension cultures in alpha minimum essential medium (αMEM) (Gibco BRL, Burlington, Canada) containing 2 mM L-glutamine and supplemented with 10% fetal calf serum (Invitrogen, Burlington, ON, Canada), 20 mM NaHCO3, 20 mM HEPES (Sigma), 100 units/ml penicillin G, and 100 μg/ml streptomycin at pH 7.4 in an atmosphere of 5% CO2 and 95% air at 37° C. For the measurement of growth inhibition, cells in exponential growth were harvested and seeded at 6000 cells/well in 96-well plates (100 μl/well). Drugs were dissolved in DMSO and added to the wells such that the final concentration of DMSO was 0.5% (v/v). After 72 h incubation, 7 μl of 3-(4,5-dimethylthiazol-2-yl)-5-(3-carboxymethoxyphenyl)-2-(4-sulfophenyl)-2H-tetrazolium (MTS) Cell Titer 96® AQueous One Solution (Promega, Md., WI) was added to each well and incubated for a further 3 h. The absorbance was measured in a Molecular Devices (Menlo Park, Calif.) plate reader. The spectrophotometric 96-well plate cell growth inhibition assay measures the ability of the cells to enzymatically reduce MTS. Three replicates were measured at each drug concentration, and the IC50 values and their SEs for growth inhibition were obtained by fitting the absorbance-drug concentration data to a four-parameter logistic equation.

One may read the inhibition as the share of the control response that was lost under treatment. As for `[O-][S+]1CCON=C1c1sc2ccccc2c1Br` (stereo not shown) [compound 13, 3-(3-bromo-1-benzothiophen-2-yl)-5,6-dihydro-1,4λ^4,2-oxathiazin-4-one], the inhibition at 3 µM at human topoisomerase IIα (3 μM) turned out to be 100%. Also, the inhibition at 30 µM on human topoisomerase IIα (30 μM) was found to be 100%. Further, the IC50 in data set [1] (Homo sapiens, K562, 72 h) is 1000 nM.
By melting point is commonly meant the temperature, or range, at which the solid turns liquid. As to `O=C(Nc1ccccc1)C1=NOCCS1(=O)=O` [compound 4, 4,4-dioxo-N-phenyl-5,6-dihydro-1, 4λ^6,2-oxathiazine-3-carboxamide], the melting point was in the range of 206 to 207 °C. Also, the inhibition at 3 µM on human topoisomerase IIα (3 μM) turned out to be 100%. Besides, the inhibition at 30 µM at human topoisomerase IIα (30 μM) turned out to be 100%. Also, in data set [1] (Homo sapiens, K562, 72 h), the IC50 was determined as 700 nM.
As to `O=S1(=O)CCON=C1c1cc2ccccc2s1` [compound 10], the “% Inhibition of topoisomerase II catalytic activity” value (“% Inhibition” for short) on human topoisomerase IIα (3 μM) and on human topoisomerase IIα (30 μM) was 100% throughout. Moreover, the IC50 in data set [1] amounted to 500 nM.
For `O=S1(=O)CCON=C1C1=Cc2ccccc2S1(=O)=O` [compound 15], the “% Inhibition” value on human topoisomerase IIα (3 μM) and on human topoisomerase IIα (30 μM) was 100% throughout. Further, the IC50 in data set [1] is 500 nM.
The compound `O=C(Nc1ccccc1)C1=NOCC[S+]1[O-]` (stereo not shown) [compound 3, 4-oxo-5,6-dihydro-N-phenyl-1,4λ^4,2-oxathiazine-3-carboxamide] displayed a melting point of 150 to 154 °C. The inhibition at 3 µM at human topoisomerase IIα (3 μM) is 100%. On human topoisomerase IIα (30 μM), the inhibition at 30 µM was 100%. Besides, the IC50 in data set [1] (Homo sapiens, K562, 72 h) amounted to 1000 nM.
Regarding `CC1=C(COc2ccccc2)S(=O)(=O)CCS1(=O)=O` [compound 21, 2-methyl-3-(phenoxymethyl)-5,6-dihydro-1λ^6,4λ^6-dithiine-1,1,4,4-tetrone], the inhibition at 3 µM at human topoisomerase IIα (3 μM) was found to be 100%. Further, the inhibition at 30 µM on human topoisomerase IIα (30 μM) amounted to 100%. The IC50 in data set [1] (Homo sapiens, K562, 72 h) was 600 nM.
The compound `CCOC(=O)C1=C(C(=O)OCC)S(=O)(=O)CCS1(=O)=O` [compound 1] displayed a melting point of 68 to 70 °C. Besides, the “% Inhibition” value on human topoisomerase IIα (3 μM) is reported as 70%. Moreover, the “% Inhibition” value at human topoisomerase IIα (30 μM) is recorded as 100%. In addition, the IC50 in data set [1] came out at 11000 nM.
Compound `CCOC(=O)C1=C(C(F)(F)F)S(=O)(=O)CCS1(=O)=O` [compound 24, ethyl 1,1,4,4-tetraoxo-3-(trifluoromethyl)-5,6-dihydro-1λ^6,4λ^6-dithiine-2-carboxylate] registered a melting point of 142 to 145 °C. For the same compound, the inhibition at 3 µM at human topoisomerase IIα (3 μM) is 100%. Besides, the inhibition at 30 µM at human topoisomerase IIα (30 μM) was 100%. Further, in data set [1] (Homo sapiens, K562, 72 h), the IC50 is 2500 nM.
With `Cc1ccc2sc(C3=NOCC[S+]3[O-])c(C)c2c1` (stereo not shown) [compound 12], the “% Inhibition” value at human topoisomerase IIα (3 μM) and on human topoisomerase IIα (30 μM) was 100% each time. In data set [1], the IC50 was found to be 700 nM.
The compound `CCOC(=O)C1=C(c2ccccc2)S(=O)(=O)CCS1(=O)=O` [compound 17, ethyl 1,1,4,4-tetraoxo-3-phenyl-5,6-dihydro-1λ^6,4λ^6-dithiine-2carboxylate] yielded a melting point of 190 to 191 °C. Also, the inhibition at 3 µM on human topoisomerase IIα (3 μM) came out at 100%. Moreover, on human topoisomerase IIα (30 μM), the inhibition at 30 µM came out at 100%. In addition, the IC50 in data set [1] (Homo sapiens, K562, 72 h) turned out to be 3000 nM.
On to `[O-][S+]1CCON=C1c1cc2ccccc2[s+]1[O-]` (stereo not shown) [compound 14], for which the “% Inhibition” value at human topoisomerase IIα (3 μM) and on human topoisomerase IIα (30 μM) was 100% each time. In data set [1], the IC50 stood at 1000 nM.
For `CC1C(C)S(=O)(=O)C(c2ccccc2)=CS1(=O)=O` (stereo not shown) [compound 19], the “% Inhibition” value at human topoisomerase IIα (3 μM) and at human topoisomerase IIα (30 μM) was 100% in each case. For the same compound, the IC50 in data set [1] stood at 4000 nM.
As to `CCOC(=O)c1ccc(C2=NOCC[S+]2[O-])s1` (stereo not shown) [compound 7], the “% Inhibition” value at human topoisomerase IIα (3 μM) and on human topoisomerase IIα (30 μM) was 100% each time. Also, in data set [1], the IC50 was 900 nM.
Take `O=C(Nc1ccccc1)C1=C(C(F)(F)F)S(=O)(=O)CCS1(=O)=O` [compound 25, 1,1,4,4-tetraoxo-N-phenyl-3-(trifluoromethyl)-5,6-dihydro-1λ^6,4λ^6-dithiine-2-carboxamide]: the melting point is 217 to 219 °C. Also, the inhibition at 3 µM at human topoisomerase IIα (3 μM) was determined as 100%. Besides, the inhibition at 30 µM on human topoisomerase IIα (30 μM) was determined as 100%. The IC50 in data set [1] (Homo sapiens, K562, 72 h) is 4000 nM.
Consider `CCOC(=O)C1=C(C(=O)OCC)S(=O)(=O)CCS1(=O)=O` [compound 20, 2,3-diethyl 1,1,4,4-tetraoxo-5,6-dihydro-1λ^6,4λ^6-dithiine-2,3-dicarboxylate], for which the melting point is 154 to 156 °C. In addition, the inhibition at 30 µM at human topoisomerase IIα (30 μM) was determined as 100%. In addition, the IC50 in data set [1] turned out to be 1000 nM.
For `[O-][S+]1CCON=C1c1nnc(-c2cccc(Cl)c2)o1` (stereo not shown) [compound 8, 3-[5-(3-chlorophenyl)-1,3,4-oxadiazol-2-yl]-5,6-dihydro-1,4λ^4,2-oxathiazin-4-one], the melting point fell in the range of 208 to 210 °C. On human topoisomerase IIα (3 μM), the inhibition at 3 µM is 80%. The inhibition at 30 µM at human topoisomerase IIα (30 μM) worked out at 100%. Besides, the IC50 in data set [1] (Homo sapiens, K562, 72 h) was 4000 nM.
`COCC1=C(COC)S(=O)(=O)CCS1(=O)=O` [compound 23]: the “% Inhibition” value on human topoisomerase IIα (3 μM) and on human topoisomerase IIα (30 μM) was 100% throughout. In addition, the IC50 in data set [1] was determined as 2300 nM.
Turning to `CCC1CS(=O)(=O)C(c2ccccc2)=C(c2ccccc2)S1(=O)=O` (stereo not shown) [compound 16], the “% Inhibition” value is on record as 80% on human topoisomerase IIα (3 μM) and 100% at human topoisomerase IIα (30 μM). Further, the IC50 in data set [1] stood at 4000 nM.
Regarding `CCCCC1=C(c2ccccc2)S(=O)(=O)CCS1(=O)=O` [compound 18], the “% Inhibition” value at human topoisomerase IIα (3 μM) is 70%; at human topoisomerase IIα (30 μM) it was 100%. The IC50 in data set [1] worked out at 5000 nM.
In the same order, the values of `CC1=C(CS(=O)(=O)c2ccccc2)S(=O)(=O)CCS1(=O)=O` [compound 22] are 100%, 100% and 1000 nM.
Turning to `CC1=C(COc2ccccc2)S(=O)(=O)CCS1(=O)=O` [compound 2], the “% Inhibition” value on human topoisomerase IIα (3 μM) and on human topoisomerase IIα (30 μM) was 100% throughout. Also, in data set [1], the IC50 was determined as 1000 nM.
Regarding `CC1C[S+]([O-])C(c2cc3ccccc3s2)=NO1` (stereo not shown) [compound 11], the “% Inhibition” value on human topoisomerase IIα (3 μM) and on human topoisomerase IIα (30 μM) was 100% each time. Further, in data set [1], the IC50 is 2000 nM.
